Experimental findings from paper PMC11372839, “Unraveling the Potential of Vitamin B3-Derived Salts with a Salicylate Anion as Dermal Active Agents for Acne Treatment” (Molecular Pharmaceutics, 2024) are described below.

≈ marks a conversion by molar mass, not a printed value. Where “and” joins values, the source holds several entries; their conditions need not be identical. Equal values may be shown once. Read-outs that look alike come from different tables or passages of the source.

A short description of data set [1]: Solubility in PBS. The conditions noted are these: for Solubility in PBS, Class: Pharmacopeia solubility class, PBS pH 7.4, 25 °C. The method, then: The solubility in PBS solution was determined by placing 1 g (±0.0001) of tested compound in a round-bottom flask and adding specific parts of the PBS solution in portions until full dissolution. The samples were vigorously stirred for at least 5 min before the addition of the next portion of PBS, and the systems were thermostated at 25 °C. Three repetitions of the measurement were performed for each of the compounds.
Most studies on the solubility of novel APIs are carried out with pure water, aqueous PBS solutions were much more preferred due to their higher similarity to intra- and intercellular media in epidermis, while envisaging their use in transdermal delivery and skin care applications.[60] […] The collected data are presented in Figure 8 (as well as in Table S6 in the Supporting Information).

A short description of data set [2]: Contact angle of aqueous solutions, sessile drop method on paraffin. Format: physicochemical. The conditions noted are these: aqueous solution, 25 °C. The method, then:
The contact angle (CA) measurements were carried out using a DSA100S analyzer (Krüss, Germany, accuracy ±0.1°), at 25 °C. The determination of the contact angle was based on the sessile drop method, i.e., drops of the analyzed solution were deposited on a solid surface (paraffin). The images of the drops were taken with a CCD camera, digitized, and evaluated using Young–Laplace fitting. The CA was determined as the slope of the tangent line at the contact point between the 3 phases (solution, paraffin surface, and air).
In the case of seborrheic skin, which occurs among many people affected by acne, the epidermis is covered by a hydrophobic lipid layer, which impedes the penetration of active substances, especially those that are well soluble in water. In addition, ensuring proper drug absorption through the skin can also reduce the risk of side effects and increase the effectiveness of therapy.[72] The addition of surfactants, which improve the wettability of hydrophobic surfaces, can be a solution to this problem.[73],[74] […] Wettability analyses of aqueous solutions of the new APIs were carried out on paraffin, whose hydrophobicity is similar to that of the human skin.[75] Experiments were performed at concentrations corresponding to common NA and SAL contents in commercial formulations (0.25–1.00%).[67],[76],[77] Due to low solubilities of 5–7, tests for these salts were performed at concentrations of 0.25, 0.03, and 0.01%, respectively (please see Figure S43 in the Supporting Information).

Data set [3] deals with Staphylococcus aureus. The data set is described as follows: MIC and MBC determination, microdilution method. Format: cell-based. The following applies: for MIC: 18 h, read-out: MIC, S. aureus; for MBC: read-out: MBC, S. aureus. The method, then: (§1) The antimicrobial activities of the compounds were tested against clinical strains of an aerobic Gram-negative bacterium—Pseudomonas aeruginosa (P. aeruginosa), facultative anaerobic Gram-positive bacteria—Staphylococcus aureus (S. aureus) and Staphylococcus epidermidis (S. epidermidis), anaerobic Gram-positive bacterium—Cutibacterium acnes (C. acnes), and yeast-like fungus—Candida albicans (C. albicans).
(§2) Aerobic and facultative anaerobic bacteria cultures were grown in Brain Heart Infusion broth (BHI, bioMerieux, France) at 35 °C ± 1 °C for 18 h, C. acnes cultures were grown in thioglycolate broth with resazurin (TGB, bioMerieux, France) at 35 ± 1 °C for 48 h, and yeast cultures were grown in Sabouraud dextrose broth (SDB, Merck, Germany) at 35 ± 1 °C for 24 h. After incubation, each culture was diluted in a suitable liquid medium: P. aeruginosa, S. aureus, and S. epidermidis—Mueller–Hinton broth (MHB; Oxoid, UK); C. acnes—TGB; and C. albicans—SDB, to obtain a final suspension containing about 10^6 CFU/mL.
(§3) The microdilution method was employed to determine the compounds’ MIC (Minimal Inhibitory Concentration) and MBC/MFC (Minimal Bactericidal Concentration/Minimal Fungicidal Concentration) against the tested bacterial and fungal strains.
(§4) The compounds were serially diluted (2-fold) in the respective media (P. aeruginosa, S. aureus, and S. epidermidis—MHB, C. acnes—TGB, and C. albicans—SDB in 96-well plates), and the microbial suspensions were added. The compounds were tested in the final concentration range of 4 096 to 0.125 μg/mL, and the final microbial inoculum was approximately 5 ×10^5 CFU/mL. The tests were incubated at 35 °C ± 1 °C for 18 h (P. aeruginosa, S. aureus, and S. epidermidis) or 24 h (C. albicans) or 48 h (C. acnes). C. acnes was incubated in an anaerobic atmosphere using a GENbag anaer (bioMerieux, France). Media (without the strains) added to the different concentrations of tested compounds and media inoculated with microbial suspension were used as a negative control and growth control, respectively.
(§5) The MIC was defined as the lowest concentration at which visible growth was inhibited. MBC and MFC concentrations were determined as an extension of the MIC test. […] The plates were incubated at 35 ± 1 °C for 18–72 h. C. acnes was incubated in an anaerobic atmosphere. The MBC/MFC was defined as the lowest concentration at which no growth was observed. All tests were performed in duplicate.
For orientation: Dilution methods test growth across graded concentrations, often in twofold steps.

Data set [4] has as its system Staphylococcus epidermidis. Description: MIC and MBC determination, microdilution method. Format: cell-based. The conditions noted are these: for MIC: 18 h, read-out: MIC, S. epidermidis; for MBC: read-out: MBC, S. epidermidis. The method, then:
as §1, §2, §3, §4, §5

Data set [5] concerns Artemia franciscana. Description: Ecotoxicity toward aquatic life, Artoxkit M immobilization test. Format: in vivo. The following applies: for EC50: Artemia franciscana; for Class: acute toxicity rating scale by Fish and Wildlife Service. The method, then:
To determine the EC50 parameter for compounds, tests were carried out on marine crustaceans—Artemia franciscana (A. franciscana). The methodology proposed in the Artoxkit M test (MicroBioTests Inc., Gent, Belgium) was developed according to the ASTM E1440-91 standard.
The hatching process was started first. For this purpose, 50 mg of cysts was transferred to the Petri dishes attached to the Artoxkit M set, which were then immersed in 10 mL of artificial seawater with a salinity of 35‰ (a medium for the development of the tested organisms, as well as a solvent for preparing solutions of the tested compounds) and placed at a temperature of 25 °C, with access to light (6000–10,000 lux) for 30 h. Then, 2 h before placing them on the Artoxkit M plates, 20 mg of spirulina was added to cultured artemias. In addition, 1 h before the analysis, the used seawater was oxygenated by passing a stream of air through the solution. To each of the four cells in a given row of a plate from the Artoxkit M kit, 1 mL of solution at the specified concentrations (or the appropriate medium in the case of a control) were introduced. In the first column of cells (a control sample and five selected concentrations), no less than 30 artemias were placed from previously prepared Petri dishes. Then, from the first cell in the first column, artemias were collected at the selected concentration and added to the next three cells in the selected row, 10 organisms per cell. After the organisms were introduced into the appropriate cells, the plates were covered with Parafilm and then closed with a plastic cap. The prepared kit was incubated at 25 °C and protected from light. Number of motionless organisms were counted after 24 and 48 h. Immobilization was then calculated (eq 1) in relation to the number of organisms at the start of the test: [drawing 1] 1
Next, the dependence between the effect and concentration of the tested compounds was plotted, and on this basis, an EC50 value was determined.

[6] abbreviates: volume of PBS (pH 7.4) to dissolve 1 g, 25 °C.
Where [7] appears, read: immobilization, motionless organisms counted after 24 and 48 h, 25 °C, read-out: EC50.
Where [8] appears, read: toxicity range of EC50, read-out: Range.
The mark [9] stands for this setting: clinical strain, tested 4 096 to 0.125 μg/mL, b = out of range.

For orientation: MIC means the lowest concentration that inhibits growth of the organism. What is called MBC is the smallest concentration meeting the test's criterion for killing.

With `CCCCCC[n+]1cccc(C(N)=O)c1.O=C([O-])c1ccccc1O` [compound 3], in data set [1], the “Solubility in PBS, Class” value is “Very Soluble (<1)”. Besides, the “Solubility in PBS, PBS [ml]” value in data set [1] (setting [6]) is below 1 mL. Besides, the Contact angle was 107.0 ° in data set [2] (concentration 0.25%), 103.4 ° in data set [2] (concentration 0.50%) and 98.51 ° in data set [2] (concentration 1.00%). Further, the minimal inhibitory concentration (MIC) in data set [3] is 2050 µg/mL; in data set [4], 4100 µg/mL. The values for the EC50 in data set [5] (setting [7]) and in data set [5] (setting [8]) were 692 µg/mL and 100 to 1000 µg/mL, respectively. The Class entry in data set [5] is listed as “Practically Nontoxic (100-1000)”.
As for `CCCCCCCCCC[n+]1cccc(C(N)=O)c1.O=C([O-])c1ccccc1O` [compound 5], the “Solubility in PBS, Class” value in data set [1] is “Slightly Soluble (100-1000)”. Moreover, in data set [1] (setting [6]), the “Solubility in PBS, PBS [ml]” value was 100 to 1000 mL. This compound also showed a Contact angle in data set [2] (concentration 0.25%) of 50.7 °. Also, the MIC in data set [3] and in data set [4] was 256 µg/mL in each case. In addition, the MBC in data set [3] and in data set [4] was 256 µg/mL throughout. Besides, the values for the EC50 in data set [5] (setting [7]) and in data set [5] (setting [8]) were 138 µg/mL and 100 to 1000 µg/mL, respectively. The Class result in data set [5] is recorded as “Practically Nontoxic (100-1000)”.
`CCCCCCCC[n+]1cccc(C(N)=O)c1.O=C([O-])c1ccccc1O` [compound 4]: the “Solubility in PBS, Class” value in data set [1] is reported as “Soluble (10-30)”. Besides, the “Solubility in PBS, PBS [ml]” value in data set [1] (setting [6]) was in the range of 10 to 30 mL. Further, the Contact angle was 94.1 ° and 94 ° in data set [2] (concentration 0.25%); 79.0 ° in data set [2] (concentration 0.50%); 61.2 ° and 61 ° in data set [2] (concentration 1.00%). In addition, the minimal inhibitory concentration (MIC) in data set [3] came to 1020 µg/mL; in data set [4], 2050 µg/mL. For the same compound, the EC50 in data set [5] (setting [7]) is 360 µg/mL; in data set [5] (setting [8]) it was 100 to 1000 µg/mL. Moreover, the Class entry in data set [5] was “Practically Nontoxic (100-1000)”.
As to `O=C(O)c1ccccc1O` [SAL, salicylic acid, reference compound], in data set [1] (pH 7.4), the “Solubility in PBS, PBS [ml]” value was in the range of 100 to 1000 mL. This compound also returned a Contact angle in data set [2] (concentration 0.25%) of 104.9 °. Besides, the MIC in data set [3] (setting [9]) and in data set [4] (setting [9]) was 1020 µg/mL (≈ 7.41 mM) in each case. Moreover, the MBC in data set [3] (setting [9]) and in data set [4] (setting [9]) was 1020 µg/mL (≈ 7.41 mM) throughout. Also, the EC50 in data set [5] (setting [7]) was 300 µg/mL (≈ 2.17 mM); in data set [5] (setting [8]), 100 to 1000 µg/mL (≈ 0.724 to 7.24 mM). Moreover, the Class entry in data set [5] is listed as “Practically Nontoxic (100-1000)”.
